Legend:
[1] = system: Phosphatidylinositol 4,5-bisphosphate 3-kinase catalytic subunit alpha isoform (Homo sapiens), P42336 [E545K]; conditions: Compound concentration 1000.0 nM
[2] = molecular target: Tyrosine-protein kinase JAK3 (Homo sapiens) (UniProt P52333); conditions: Compound concentration 1000.0 nM
[3] = molecular target: Maternal embryonic leucine zipper kinase (Homo sapiens) (UniProt Q14680); conditions: Compound concentration 1000.0 nM
[4] = molecular target: Tyrosine-protein kinase Fer (Homo sapiens) (UniProt P16591); conditions: Compound concentration 1000.0 nM
[5] = molecular target: G protein-coupled receptor kinase 3 (Homo sapiens) (UniProt P35626); conditions: Compound concentration 1000.0 nM
[6] = molecular target: Glycogen synthase kinase-3 beta (Homo sapiens) (UniProt P49841); conditions: Compound concentration 1000.0 nM
[7] = molecular target: Serine/threonine-protein kinase DCLK1 (Homo sapiens) (UniProt O15075); conditions: Compound concentration 1000.0 nM
[8] = molecular target: Atypical kinase COQ8A, mitochondrial (Homo sapiens) (UniProt Q8NI60); conditions: Compound concentration 1000.0 nM
[9] = molecular target: Ephrin type-B receptor 4 (Homo sapiens) (UniProt P54760); conditions: Compound concentration 1000.0 nM
[10] = molecular target: Serine/threonine-protein kinase NLK (Homo sapiens) (UniProt Q9UBE8); conditions: Compound concentration 1000.0 nM
[11] = molecular target: Tyrosine-protein kinase BTK (Homo sapiens) (UniProt Q06187); conditions: Compound concentration 1000.0 nM
[12] = molecular target: Protein-tyrosine kinase 6 (Homo sapiens) (UniProt Q13882); conditions: Compound concentration 1000.0 nM
[13] = molecular target: Serine/threonine-protein kinase N1 (Homo sapiens) (UniProt Q16512); conditions: Compound concentration 1000.0 nM
[14] = molecular target: LIM domain kinase 1 (Homo sapiens) (UniProt P53667); conditions: Compound concentration 1000.0 nM
[15] = molecular target: Mitogen-activated protein kinase 6 (Homo sapiens) (UniProt Q16659); conditions: Compound concentration 1000.0 nM
[16] = molecular target: Serine/threonine-protein kinase Sgk1 (Homo sapiens) (UniProt O00141); conditions: Compound concentration 1000.0 nM
[17] = molecular target: Ephrin type-A receptor 6 (Homo sapiens) (UniProt Q9UF33); conditions: Compound concentration 1000.0 nM
[18] = molecular target: Serine/threonine-protein kinase TBK1 (Homo sapiens) (UniProt Q9UHD2); conditions: Compound concentration 1000.0 nM
[19] = molecular target: Cyclin-dependent kinase 11A (Homo sapiens) (UniProt Q9UQ88); conditions: Compound concentration 1000.0 nM
[20] = molecular target: Alpha-1A adrenergic receptor (Homo sapiens) (UniProt P35348); conditions: Compound concentration 10.0 uM
[21] = molecular target: MAP kinase-activated protein kinase 2 (Homo sapiens) (UniProt P49137); conditions: Compound concentration 1000.0 nM
[22] = molecular target: T1, 5-hydroxytryptamine receptor 1A (Homo sapiens) (UniProt P08908); conditions: Compound concentration 10.0 uM
T1 sequence (whole entry): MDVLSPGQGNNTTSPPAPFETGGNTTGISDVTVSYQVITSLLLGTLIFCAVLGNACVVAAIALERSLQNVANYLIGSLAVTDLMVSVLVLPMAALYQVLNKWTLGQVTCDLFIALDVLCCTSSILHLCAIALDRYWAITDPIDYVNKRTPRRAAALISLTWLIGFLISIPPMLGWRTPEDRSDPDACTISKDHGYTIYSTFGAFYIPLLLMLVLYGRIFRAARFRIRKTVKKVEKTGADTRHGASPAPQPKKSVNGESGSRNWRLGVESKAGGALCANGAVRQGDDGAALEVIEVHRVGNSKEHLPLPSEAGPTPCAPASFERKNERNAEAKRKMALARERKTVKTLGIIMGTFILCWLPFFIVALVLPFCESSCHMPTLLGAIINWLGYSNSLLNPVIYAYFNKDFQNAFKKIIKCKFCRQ

[23] = molecular target: STE20/SPS1-related proline-alanine-rich protein kinase (Homo sapiens) (UniProt Q9UEW8); conditions: Compound concentration 1000.0 nM
[24] = molecular target: Dual specificity mitogen-activated protein kinase kinase 5 (Homo sapiens) (UniProt Q13163); conditions: Compound concentration 1000.0 nM
[25] = molecular target: Vascular endothelial growth factor receptor 2 (Homo sapiens) (UniProt P35968); conditions: Compound concentration 1000.0 nM
[26] = system: Tyrosine-protein kinase ABL1 (Homo sapiens), P00519 [F317L]; conditions: Compound concentration 1000.0 nM
[27] = molecular target: Cyclin-dependent kinase-like 3 (Homo sapiens) (UniProt Q8IVW4); conditions: Compound concentration 1000.0 nM
[28] = molecular target: 3-phosphoinositide-dependent protein kinase 1 (Homo sapiens) (UniProt O15530); conditions: Compound concentration 1000.0 nM
[29] = molecular target: Tyrosine-protein kinase receptor Tie-1 (Homo sapiens) (UniProt P35590); conditions: Compound concentration 1000.0 nM
[30] = molecular target: 5-hydroxytryptamine receptor 1B (Homo sapiens) (UniProt P28222); conditions: Compound concentration 10.0 uM
[31] = molecular target: Serine/threonine-protein kinase D1 (Homo sapiens) (UniProt Q15139); conditions: Compound concentration 1000.0 nM
[32] = molecular target: Dual specificity protein kinase CLK3 (Homo sapiens) (UniProt P49761); conditions: Compound concentration 1000.0 nM
[33] = molecular target: Serine/threonine-protein kinase MRCK gamma (Homo sapiens) (UniProt Q6DT37); conditions: Compound concentration 1000.0 nM
[34] = molecular target: Serine/threonine-protein kinase WNK3 (Homo sapiens) (UniProt Q9BYP7); conditions: Compound concentration 1000.0 nM
[35] = molecular target: Angiopoietin-1 receptor (Homo sapiens) (UniProt Q02763); conditions: Compound concentration 1000.0 nM
[36] = system: Phosphatidylinositol 4,5-bisphosphate 3-kinase catalytic subunit alpha isoform (Homo sapiens), P42336 [E545A]; conditions: Compound concentration 1000.0 nM
[37] = molecular target: 5-hydroxytryptamine receptor 5A (Homo sapiens) (UniProt P47898); conditions: Compound concentration 10.0 uM
[38] = molecular target: SRSF protein kinase 3 (Homo sapiens) (UniProt Q9UPE1); conditions: Compound concentration 1000.0 nM
[39] = molecular target: Dual specificity protein kinase CLK4 (Homo sapiens) (UniProt Q9HAZ1); conditions: Compound concentration 1000.0 nM
[40] = molecular target: Mitogen-activated protein kinase kinase kinase 19 (Homo sapiens) (UniProt Q56UN5); conditions: Compound concentration 1000.0 nM

Serine/threonine-protein kinase D1 (Homo sapiens), sequence (Q15139 whole entry): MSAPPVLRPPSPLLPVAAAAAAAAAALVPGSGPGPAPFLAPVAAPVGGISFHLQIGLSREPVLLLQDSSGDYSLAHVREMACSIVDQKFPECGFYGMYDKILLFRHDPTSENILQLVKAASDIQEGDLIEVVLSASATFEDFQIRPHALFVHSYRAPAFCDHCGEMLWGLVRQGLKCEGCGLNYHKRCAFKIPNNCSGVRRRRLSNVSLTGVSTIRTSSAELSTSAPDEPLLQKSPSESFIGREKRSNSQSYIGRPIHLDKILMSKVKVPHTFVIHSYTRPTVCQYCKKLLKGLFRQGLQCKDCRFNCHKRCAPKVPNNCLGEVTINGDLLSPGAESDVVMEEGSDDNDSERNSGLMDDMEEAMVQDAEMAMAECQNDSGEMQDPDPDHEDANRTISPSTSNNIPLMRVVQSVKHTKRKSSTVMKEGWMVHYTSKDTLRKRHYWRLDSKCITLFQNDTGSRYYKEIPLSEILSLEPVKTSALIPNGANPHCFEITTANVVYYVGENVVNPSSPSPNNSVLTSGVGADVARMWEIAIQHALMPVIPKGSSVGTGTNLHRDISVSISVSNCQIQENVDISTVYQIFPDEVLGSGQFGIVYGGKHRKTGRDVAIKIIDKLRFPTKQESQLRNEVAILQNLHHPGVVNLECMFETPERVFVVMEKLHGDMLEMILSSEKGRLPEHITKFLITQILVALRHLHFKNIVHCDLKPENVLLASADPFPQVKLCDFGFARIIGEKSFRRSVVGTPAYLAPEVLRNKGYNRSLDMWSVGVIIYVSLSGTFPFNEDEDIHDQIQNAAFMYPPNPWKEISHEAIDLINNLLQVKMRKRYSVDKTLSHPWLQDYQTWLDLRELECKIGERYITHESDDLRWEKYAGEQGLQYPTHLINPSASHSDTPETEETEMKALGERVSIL
Serine/threonine-protein kinase MRCK gamma (Homo sapiens), sequence (Q6DT37 whole entry): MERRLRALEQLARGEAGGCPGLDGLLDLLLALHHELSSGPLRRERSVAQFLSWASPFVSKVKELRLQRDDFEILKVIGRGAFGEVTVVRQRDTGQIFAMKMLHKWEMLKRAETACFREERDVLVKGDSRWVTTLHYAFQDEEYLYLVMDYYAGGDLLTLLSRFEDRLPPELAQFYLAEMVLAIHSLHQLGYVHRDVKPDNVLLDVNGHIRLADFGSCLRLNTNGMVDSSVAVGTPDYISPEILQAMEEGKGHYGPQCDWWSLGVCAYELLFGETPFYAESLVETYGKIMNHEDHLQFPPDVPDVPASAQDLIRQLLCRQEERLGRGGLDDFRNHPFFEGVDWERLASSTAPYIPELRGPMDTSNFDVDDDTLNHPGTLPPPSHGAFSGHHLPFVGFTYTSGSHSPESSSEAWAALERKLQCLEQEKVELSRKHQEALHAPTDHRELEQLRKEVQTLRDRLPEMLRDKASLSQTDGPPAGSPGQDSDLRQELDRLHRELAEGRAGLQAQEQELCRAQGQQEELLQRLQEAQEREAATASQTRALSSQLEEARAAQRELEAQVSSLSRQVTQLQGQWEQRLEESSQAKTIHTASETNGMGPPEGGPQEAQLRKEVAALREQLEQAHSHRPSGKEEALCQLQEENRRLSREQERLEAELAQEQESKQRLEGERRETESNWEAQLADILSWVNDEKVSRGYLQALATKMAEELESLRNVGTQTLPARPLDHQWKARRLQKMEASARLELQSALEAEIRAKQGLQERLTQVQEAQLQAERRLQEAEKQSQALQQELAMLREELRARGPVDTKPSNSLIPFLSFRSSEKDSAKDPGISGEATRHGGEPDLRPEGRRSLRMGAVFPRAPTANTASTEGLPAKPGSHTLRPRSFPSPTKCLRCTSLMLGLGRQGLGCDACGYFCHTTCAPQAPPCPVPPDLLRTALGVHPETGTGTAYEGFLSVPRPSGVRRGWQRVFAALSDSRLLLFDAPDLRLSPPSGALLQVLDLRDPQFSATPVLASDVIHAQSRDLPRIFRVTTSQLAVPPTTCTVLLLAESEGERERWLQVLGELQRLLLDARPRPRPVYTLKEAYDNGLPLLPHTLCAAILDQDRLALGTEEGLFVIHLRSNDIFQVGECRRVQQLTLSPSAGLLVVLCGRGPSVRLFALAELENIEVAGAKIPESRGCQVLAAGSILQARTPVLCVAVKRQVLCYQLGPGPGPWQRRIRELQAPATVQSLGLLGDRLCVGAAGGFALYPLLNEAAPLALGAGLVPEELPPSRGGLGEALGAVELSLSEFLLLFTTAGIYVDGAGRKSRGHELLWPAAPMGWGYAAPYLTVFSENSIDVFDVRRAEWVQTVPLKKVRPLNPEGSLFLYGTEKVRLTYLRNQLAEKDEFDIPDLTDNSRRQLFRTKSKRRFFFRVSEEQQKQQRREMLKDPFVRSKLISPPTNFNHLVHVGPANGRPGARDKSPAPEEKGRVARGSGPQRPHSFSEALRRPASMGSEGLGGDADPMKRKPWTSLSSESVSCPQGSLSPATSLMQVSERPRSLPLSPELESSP
Phosphatidylinositol 4,5-bisphosphate 3-kinase catalytic subunit alpha isoform (Homo sapiens), P42336 [E545K], sequence (P42336 whole entry E545K, canonical isoform): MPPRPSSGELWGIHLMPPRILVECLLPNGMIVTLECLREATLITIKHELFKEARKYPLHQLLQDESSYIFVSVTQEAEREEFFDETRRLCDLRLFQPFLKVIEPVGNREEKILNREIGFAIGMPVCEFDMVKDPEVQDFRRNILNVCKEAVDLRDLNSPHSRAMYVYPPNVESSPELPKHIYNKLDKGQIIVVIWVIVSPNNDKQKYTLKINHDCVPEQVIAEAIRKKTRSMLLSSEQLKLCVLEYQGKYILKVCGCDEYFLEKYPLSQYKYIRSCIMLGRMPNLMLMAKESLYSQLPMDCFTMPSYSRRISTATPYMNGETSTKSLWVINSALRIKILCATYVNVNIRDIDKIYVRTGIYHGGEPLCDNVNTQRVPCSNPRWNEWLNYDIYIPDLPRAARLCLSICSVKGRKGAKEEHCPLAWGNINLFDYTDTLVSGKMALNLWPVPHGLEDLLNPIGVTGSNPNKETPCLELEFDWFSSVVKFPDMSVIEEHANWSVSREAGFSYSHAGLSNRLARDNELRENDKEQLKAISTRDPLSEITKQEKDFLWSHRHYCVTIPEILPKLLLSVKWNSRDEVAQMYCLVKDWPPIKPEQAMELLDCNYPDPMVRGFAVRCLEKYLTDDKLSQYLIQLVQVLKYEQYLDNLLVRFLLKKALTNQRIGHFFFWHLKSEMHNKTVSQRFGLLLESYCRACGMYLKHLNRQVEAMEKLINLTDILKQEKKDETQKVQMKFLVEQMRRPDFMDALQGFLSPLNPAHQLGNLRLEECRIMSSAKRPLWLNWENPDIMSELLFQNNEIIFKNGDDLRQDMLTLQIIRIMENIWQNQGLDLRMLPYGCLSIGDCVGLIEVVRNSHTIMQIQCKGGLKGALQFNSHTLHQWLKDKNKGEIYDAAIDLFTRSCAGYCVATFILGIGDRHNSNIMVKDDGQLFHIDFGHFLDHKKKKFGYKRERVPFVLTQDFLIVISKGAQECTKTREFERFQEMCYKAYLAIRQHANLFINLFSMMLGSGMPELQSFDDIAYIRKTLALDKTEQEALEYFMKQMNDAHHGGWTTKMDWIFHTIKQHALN
Cyclin-dependent kinase 11A (Homo sapiens), sequence (Q9UQ88 whole entry): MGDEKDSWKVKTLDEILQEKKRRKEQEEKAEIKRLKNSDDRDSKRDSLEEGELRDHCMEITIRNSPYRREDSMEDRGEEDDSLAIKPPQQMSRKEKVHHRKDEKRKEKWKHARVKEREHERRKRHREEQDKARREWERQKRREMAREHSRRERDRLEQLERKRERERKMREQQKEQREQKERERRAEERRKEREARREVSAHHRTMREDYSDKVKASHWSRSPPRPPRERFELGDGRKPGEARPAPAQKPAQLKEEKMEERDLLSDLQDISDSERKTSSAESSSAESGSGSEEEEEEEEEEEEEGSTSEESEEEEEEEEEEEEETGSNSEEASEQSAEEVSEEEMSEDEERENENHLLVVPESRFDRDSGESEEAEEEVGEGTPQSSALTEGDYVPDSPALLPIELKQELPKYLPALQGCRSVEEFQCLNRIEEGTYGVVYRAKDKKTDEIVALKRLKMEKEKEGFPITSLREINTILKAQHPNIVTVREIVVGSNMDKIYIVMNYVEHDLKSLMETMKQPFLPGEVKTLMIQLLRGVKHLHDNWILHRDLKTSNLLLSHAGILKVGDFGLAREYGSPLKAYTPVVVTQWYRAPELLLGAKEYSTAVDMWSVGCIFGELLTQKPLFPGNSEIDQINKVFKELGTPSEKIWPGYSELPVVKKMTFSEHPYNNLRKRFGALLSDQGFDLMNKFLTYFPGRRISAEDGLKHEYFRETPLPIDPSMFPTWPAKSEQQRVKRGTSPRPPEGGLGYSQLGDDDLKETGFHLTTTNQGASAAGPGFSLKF
LIM domain kinase 1 (Homo sapiens), sequence (P53667 whole entry, looked up, the tested form may be a part): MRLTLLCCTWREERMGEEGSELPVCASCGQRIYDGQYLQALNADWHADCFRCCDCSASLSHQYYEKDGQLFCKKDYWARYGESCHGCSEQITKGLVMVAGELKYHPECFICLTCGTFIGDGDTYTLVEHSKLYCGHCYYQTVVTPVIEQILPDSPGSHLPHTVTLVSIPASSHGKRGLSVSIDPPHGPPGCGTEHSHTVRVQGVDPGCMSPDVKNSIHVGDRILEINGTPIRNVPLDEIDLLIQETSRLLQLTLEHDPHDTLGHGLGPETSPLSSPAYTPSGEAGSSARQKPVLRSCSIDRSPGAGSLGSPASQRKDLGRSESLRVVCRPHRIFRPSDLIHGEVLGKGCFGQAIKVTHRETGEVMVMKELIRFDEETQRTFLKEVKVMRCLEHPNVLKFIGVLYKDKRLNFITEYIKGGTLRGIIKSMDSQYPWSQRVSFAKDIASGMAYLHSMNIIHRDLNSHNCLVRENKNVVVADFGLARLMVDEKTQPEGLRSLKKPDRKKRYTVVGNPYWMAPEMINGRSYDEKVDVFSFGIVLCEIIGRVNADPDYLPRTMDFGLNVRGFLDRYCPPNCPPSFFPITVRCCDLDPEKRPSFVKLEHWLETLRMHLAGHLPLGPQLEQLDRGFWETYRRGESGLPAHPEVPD
Phosphatidylinositol 4,5-bisphosphate 3-kinase catalytic subunit alpha isoform (Homo sapiens), P42336 [E545A], sequence (P42336 whole entry E545A, canonical isoform): as the sequence (P42336 whole entry E545K, canonical isoform) above, with K545A counted along it

Compound | residual activity [1] | residual activity [2] | residual activity [3] | residual activity [4] | residual activity [5] | residual activity [6] | residual activity [7] | residual activity [8] | residual activity [9] | residual activity [10] | residual activity [11] | residual activity [12] | residual activity [13] | residual activity [14] | residual activity [15] | residual activity [16] | residual activity [17] | residual activity [18] | residual activity [19] | inhibition [20] | further results
CCCCN(CCCC)C(=O)CN1C[C@@H](c2cc(OC)c3c(c2)OCO3)[C@H](C(=O)O)[C@H]1CC(C)(C)CCC [A-545] | 91% | 93.6% | 100% | 100% | 87.6% | 100% | 81.5% | 99.4% | 98.5% | 100% | 100% | 100% | 85% | 99% | 96.5% | 77.6% | 100% | 100% | 98.3% | 23.3% | residual activity [21]: 84.2%; inhibition [22]: 76.3%; residual activity [23]: 100%; residual activity [24]: 100%; residual activity [25]: 88.1%; residual activity [26]: 100%; residual activity [27]: 83.6%; residual activity [28]: 77.3%; residual activity [29]: 94.7%; inhibition [30]: -2.98%; residual activity [31]: 100%; residual activity [32]: 100%; residual activity [33]: 94.4%; residual activity [34]: 65.5%; residual activity [35]: 100%; residual activity [36]: 77.9%; inhibition [37]: 43.5%; residual activity [38]: 100%; residual activity [39]: 72.4%; residual activity [40]: 100%
CCCCN(CCCC)C(=O)CN1C[C@H](c2cc(OC)c3c(c2)OCO3)[C@@H](C(=O)O)[C@@H]1CC(C)(C)CCC [ABT-546] | 70% | 71.3% | 100% | 100% | 50.8% | 100% | 80.2% | 100% | 100% | 100% | 61.3% | 100% | 100% | 100% | 100% | 69.2% | 100% | 100% | 100% | -2.13% | residual activity [21]: 100%; inhibition [22]: 20.6%; residual activity [23]: 100%; residual activity [24]: 100%; residual activity [25]: 88.7%; residual activity [26]: 100%; residual activity [27]: 100%; residual activity [28]: 100%; residual activity [29]: 100%; inhibition [30]: 2.64%; residual activity [31]: 79.4%; residual activity [32]: 100%; residual activity [33]: 100%; residual activity [34]: 100%; residual activity [35]: 90.5%; residual activity [36]: 89.8%; inhibition [37]: -5.07%; residual activity [38]: 100%; residual activity [39]: 100%; residual activity [40]: 90.3%

Source: ChEMBL document CHEMBL4507258 (2021)
